These results are taken from paper PMC6345859, “Copper amine oxidases catalyze the oxidative deamination and hydrolysis of cyclic imines” (Nature Communications, 2019).

Residue numbers refer to the chain shown, from its start.

For orientation: Km means the concentration of substrate that gives half-maximal velocity.

Data set [1] deals with COc1ccc2c3c([nH]c2c1)C(C)=NCC3. The data set is described as follows: purified protein. The settings on record: 20 mM Hepes-NaOH pH 7.0, 28 °C, O2 co-substrate.
A further data set deals with C=C1CCCCN1. Briefly: purified protein. The settings on record: 20 mM Hepes-NaOH pH 7.0, 28 °C, O2 co-substrate, named as the enamine tautomer, treated in the paper as a cyclic imine.
The target of data set [2] is T1, HarA (harmaline-metabolizing enzyme, copper amine oxidase) (Arthrobacter sp., UniProt A0A5A4PV14, D295E).
T1 construct: purified from strain C-4A, or recombinant from E. coli BL21-CodonPlus(DE3)-RIL (pETDuet-harA); 71 kDa subunit, 130 kDa native, homodimer; TPQ cofactor from Y379, Cu2+
T1 sequence (A0A5A4PV14 1-649 D295E): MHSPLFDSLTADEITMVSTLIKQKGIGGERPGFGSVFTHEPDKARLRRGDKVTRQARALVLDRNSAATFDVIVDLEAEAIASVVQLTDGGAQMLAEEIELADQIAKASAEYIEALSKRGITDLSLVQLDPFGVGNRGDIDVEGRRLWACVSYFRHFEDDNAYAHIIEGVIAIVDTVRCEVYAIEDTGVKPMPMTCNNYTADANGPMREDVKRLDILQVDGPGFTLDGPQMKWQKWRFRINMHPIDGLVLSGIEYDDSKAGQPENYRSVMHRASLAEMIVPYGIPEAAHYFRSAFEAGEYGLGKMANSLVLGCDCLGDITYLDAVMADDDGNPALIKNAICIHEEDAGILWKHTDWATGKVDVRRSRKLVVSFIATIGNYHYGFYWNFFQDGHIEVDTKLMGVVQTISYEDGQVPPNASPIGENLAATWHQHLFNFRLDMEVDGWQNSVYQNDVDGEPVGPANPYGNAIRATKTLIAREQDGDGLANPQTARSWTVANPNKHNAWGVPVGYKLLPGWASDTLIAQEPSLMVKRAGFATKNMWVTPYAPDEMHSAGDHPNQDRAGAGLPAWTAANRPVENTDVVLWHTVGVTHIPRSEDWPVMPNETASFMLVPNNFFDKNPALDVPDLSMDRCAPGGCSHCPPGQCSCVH
The data set is described as follows: LC/MS product detection. The data set is classed as biochemical. The settings on record: […] Hepes-NaOH pH […] °C.

Data set [3] concerns the target T2, ECAO (copper amine oxidase from E. coli) (Escherichia coli, UniProt P46883).
T2 construct: gene tynA; recombinant, pET24a(+)-tynA in E. coli BL21-CodonPlus(DE3)-RIL, purified; TPQ cofactor
The data set is described as follows: LC/MS or HPLC product detection. The format is biochemical. The settings on record: 0.5 mg/mL enzyme.

The target of data set [4] is T3, HarA (harmaline-metabolizing enzyme, copper amine oxidase) (Arthrobacter sp., UniProt A0A5A4PV14).
T3 construct: purified from strain C-4A, or recombinant from E. coli BL21-CodonPlus(DE3)-RIL (pETDuet-harA); 71 kDa subunit, 130 kDa native, homodimer; TPQ cofactor from Y379, Cu2+
T3 sequence (A0A5A4PV14 1-649): T1 sequence (A0A5A4PV14 1-649 D295E) with E295D
The data set is described as follows: resonance Raman and anaerobic UV-vis spectroscopy. The format is binding. The conditions noted are these: covalent imine adduct with TPQ, difference against Y379F.

The target of data set [5] is T3, HarA (harmaline-metabolizing enzyme, copper amine oxidase). Briefly: LC/MS/MS of chymotryptic nonapeptide; phenylhydrazine titration. The format is binding. The conditions noted are these: covalent; adduct with TPQ cofactor (Y379); […] Tris-HCl pH […] digest.

T2 sequence (P46883 31-757): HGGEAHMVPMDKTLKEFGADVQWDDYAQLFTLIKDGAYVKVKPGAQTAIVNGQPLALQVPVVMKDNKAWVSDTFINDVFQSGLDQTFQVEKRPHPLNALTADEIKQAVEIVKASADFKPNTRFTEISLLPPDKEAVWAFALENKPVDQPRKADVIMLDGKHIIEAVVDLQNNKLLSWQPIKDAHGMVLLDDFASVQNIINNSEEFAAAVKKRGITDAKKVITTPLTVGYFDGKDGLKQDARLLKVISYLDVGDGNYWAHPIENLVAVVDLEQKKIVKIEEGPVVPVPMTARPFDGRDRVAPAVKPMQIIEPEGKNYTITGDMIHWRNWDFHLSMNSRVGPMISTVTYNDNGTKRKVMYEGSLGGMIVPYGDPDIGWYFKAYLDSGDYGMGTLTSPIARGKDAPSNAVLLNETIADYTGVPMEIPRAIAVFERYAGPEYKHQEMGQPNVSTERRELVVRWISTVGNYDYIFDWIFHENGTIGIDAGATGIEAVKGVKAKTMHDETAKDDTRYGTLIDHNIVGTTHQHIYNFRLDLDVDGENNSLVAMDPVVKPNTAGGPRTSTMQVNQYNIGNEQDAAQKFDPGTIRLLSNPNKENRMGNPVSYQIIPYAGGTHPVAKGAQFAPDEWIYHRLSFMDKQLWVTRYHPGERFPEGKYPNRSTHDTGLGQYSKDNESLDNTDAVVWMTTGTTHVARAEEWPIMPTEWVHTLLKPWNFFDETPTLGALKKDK

Turning to “HarA (harmaline-metabolizing enzyme, copper amine oxidase) (Arthrobacter sp.)”, the Km amounted to 439 µM in data set [1] and 1700 µM with C=C1CCCCN1.

Consider `NCCc1c[nH]c2ccccc12` [tryptamine], for which the LC/MS product detection entry in data set [2] is recorded as “D295E mutant catalyzed deamination of tryptamine, although the activity was less than that of wild-type”.

On to `COc1ccc2c3c([nH]c2c1)C(C)=NCC3` [harmaline], for which, in data set [3], the “LC/MS or HPLC product detection” value is reported as “The purified ECAO was able to convert harmaline into 2-AIMA”.

As to `NCc1ccccc1` [BA, benzylamine], the “resonance Raman and anaerobic UV-vis spectroscopy” value in data set [4] was “we observed a benzylamine adduct, which would be the inactive deprotonated imine intermediate, in HarA”.

Turning to `NNc1ccccc1` [phenylhydrazine], the “LC/MS/MS of chymotryptic nonapeptide; phenylhydrazine titration” value in data set [5] is on record as “TPQ was also detected as a phenylhydrazine adduct in the nonapeptide”.
